Data reported in patent publication US10781201B2, “Benzimidazole derivative having JNK inhibitory activity and use thereof” (INDUSTRY-UNIVERSITY COOPERATION FOUNDATION HANYANG …, priority 2017, dated 2020).

Assays:
[1] = target: human JNK3 enzyme (Homo sapiens, UniProt P53779); test: Measurement of JNK3 enzymatic activity (33P-ATP filter-binding method); assay type: biochemical; details: ATP 10 μM, ATF2 3 μM
Description: First, a substrate was added to a prepared base reaction buffer solution (20 mM Hepes (pH 7.5), 10 mM MgCl2, 1 mM EGTA, 0.02% Brij35, 0.02 mg/ml BSA, 0.1 mM Na3VO4, 2 mM DTT, 1% DMSO), a human JNK3 enzyme was added into the prepared substrate solution, and the resulting solution was mixed. ATP (10 μM) and ATF2 (3 μM) were used as substrates, and among them, ATP was used as a common substrate. Next, the compound according to the present invention dissolved in 100% DMSO was added to an enzyme reaction solution, and incubated at room temperature for 20 minutes. Subsequently, ^33P-ATP was added to the mixed reaction solution to initiate the reaction, followed by incubation at room temperature for 2 hours, and enzymatic activity was detected by a filter-binding method. Specifically, 25 al per resulting solution was slowly spotted on P81 paper and placed in a scintillation vial, and then the paper was washed four times with 0.75% phosphoric acid for 10 minutes each and washed once with acetone for 5 minutes. 5 ml of a scintillation cocktail was added to the scintillation vial and signals were read using a scintillation counter.

[2] = test system: P-gp (MDR1); test: Evaluation of migration of blood-brain barrier (BBB migration evaluation system); assay type: in vitro ADME; details: human, Caco-2-MDR1 cells; for Papp A→B: apical to basolateral, read-out: A to B (permeability coefficient Papp); for Papp B→A: basolateral to apical, read-out: B to A (permeability coefficient Papp)
Text: (§1) The blood-brain barrier (BBB) functions as a primary barrier to prevent the invasion of foreign substances, but acts as an obstacle to treatment in pathological circumstances. That is, therapeutics for the treatment of brain diseases or maintaining the condition thereof are very unlikely to permeate the blood-brain barrier, and thus are unable to be effectively used, and accordingly, the selection of drugs for the treatment of brain diseases is limited. […] […] amount of material permeating into mebrain, A: area, and C0: initial concentration of material)

[3] = test system: P-gp(MDR1)-overexpressing Caco-2-MDR1 cells; test: as above; assay type: in vitro ADME; details: class in words
Text: as §1

[4] = test system: Alzheimer's disease transgenic mice; test: Reducing concentration of APP and beta-amyloid oligomer in brain tissue, western blotting; assay type: in vivo; details: IV 15 mg/kg/day three times per 1 week for a total of 2 weeks, compared to non-treated 2×TG(veh)
Text: JNK3 is known to phosphorylate and activate amyloid precursor protein (APP), which is the main cause of Alzheimer's disease, to thus allow the APP to be located in a cell membrane, and promotes the conversion of APP to beta-amyloid, and it has been reported that, even in a case in which, after beta-amyloid is formed, the apoptosis of neurons is induced by toxicity thereof, the activation of JNK3 acts as a main cause. Based on these facts, in the present experimental example, the derivative of the present invention (compound 35d) was administered via intravenous injection (IV) to Alzheimer's disease transgenic mice in a dose of 15 mg/kg/day three times per 1 week for a total of 2 weeks, and then changes in the concentration of APP and beta-amyloid oligomer in the frontal lobe cortex were confirmed through western blotting. Meanwhile, normal mice (WT(veh)) were used as a control, and non-treated Alzheimer's disease transgenic mice (2×TG(veh)) were used as a comparative group.

human JNK3 enzyme, sequence (P53779 whole entry): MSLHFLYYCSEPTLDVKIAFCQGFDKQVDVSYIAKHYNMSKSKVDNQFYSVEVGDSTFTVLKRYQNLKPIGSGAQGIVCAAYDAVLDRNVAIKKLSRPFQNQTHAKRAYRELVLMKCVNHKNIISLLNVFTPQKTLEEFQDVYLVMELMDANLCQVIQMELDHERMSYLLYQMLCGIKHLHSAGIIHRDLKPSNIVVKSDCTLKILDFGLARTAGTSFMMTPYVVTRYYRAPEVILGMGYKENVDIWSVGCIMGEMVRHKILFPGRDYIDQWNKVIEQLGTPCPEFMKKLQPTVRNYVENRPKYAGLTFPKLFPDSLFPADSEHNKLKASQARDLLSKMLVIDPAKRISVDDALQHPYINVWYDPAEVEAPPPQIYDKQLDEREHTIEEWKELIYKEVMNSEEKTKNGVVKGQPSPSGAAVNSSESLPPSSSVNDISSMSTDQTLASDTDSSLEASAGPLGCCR

Work on `O=C(C1CC1)N1CCC[C@H](Nc2nccc(-n3c(-c4ccc5c(c4)OCCO5)nc4ccc(O)cc43)n2)C1` [Compound 26c, (S)-cyclopropyl(3-((4-(2-(2,3-dihydrobenzo[b][1,4]dioxin-6-yl)-6-hydroxy-1H-benzo[d]imidazole-1-yl)pyrimidin-2-yl)amino)piperidine-1-yl)methanone] yielded an IC50 ([1]; Table 2) of 30 to 100 nM, an efflux ratio [2] of 1.03 and a Papp A→B [2] of 19.2 ×10⁻⁶ cm/s. The Papp B→A [2] was 19.9 ×10⁻⁶ cm/s and the Permeability [3] was “High”.

With `O=C(C1CC1)N1CCC[C@@H](Nc2nccc(-n3c(-c4ccc5ccccc5c4)nc4cc(O)c(O)cc43)n2)C1` [Compound 35a, (R)-cyclopropyl(3-(4-(5,6-dihydroxy-2-(naphthalene-2-yl)-1H-benzo[d]imidazole-1-yl)pyrimidin-2-ylamino)piperidine-1-yl)methanone] the IC50 ([1]; Table 3) was < 30 nM.

For `O=C(C1CC1)N1CCC[C@@H](Nc2nccc(-n3c(-c4ccc(Cl)c(Cl)c4)nc4cc(O)c(O)cc43)n2)C1` [Compound 35b, (R)-cyclopropyl(3-(4-(2-(3,4-dichlorophenyl)-5,6-dihydroxy-1H-benzo[d]imidazole-1-yl)pyrimidin-2-ylamino)piperidine-1-yl)methanone], the IC50 ([1]; Table 3) was < 30 nM.

With `O=C(C1CC1)N1CCC[C@@H](Nc2nccc(-n3c(-c4ccc(F)c(C(F)(F)F)c4)nc4cc(O)c(O)cc43)n2)C1` [Compound 35c, (R)-cyclopropyl(3-(4-(2-(4-fluoro-3-(trifluoromethyl)phenyl)-5,6-dihydroxy-1H-benzo[d]imidazole-1-yl)pyrimidin-2-ylamino)piperidine-1-yl)methanone] the IC50 ([1]; Table 3) was < 30 nM.

`O=C(C1CC1)N1CCC[C@@H](Nc2nccc(-n3c(-c4ccc5c(c4)OCCO5)nc4cc(O)c(O)cc43)n2)C1` [Compound 35d, (R)-cyclopropyl(3-(4-(2-(2,3-dihydrobenzo[b][1,4]dioxin-6-yl)-5,6-dihydroxy-1H-benzo[d]imidazole-1-yl)pyrimidin-2-ylamino)piperidine-1-yl)methanone] was tested, and the IC50 ([1]; Table 3) was < 30 nM, the “concentration of beta-amyloid oligomer in the frontal lobe cortex” value [4] was “significantly reduced” and the “expression level of APP in the frontal lobe cortex” value [4] was “significantly reduced”. For the same compound, the efflux ratio [2] was 1.13, the Papp A→B [2] was 17.3 ×10⁻⁶ cm/s and the Papp B→A [2] was 19.6 ×10⁻⁶ cm/s. The Permeability [3] was “High”.

With `O=C(C1CC1)N1CCC[C@@H](Nc2nccc(-n3c(-c4ccc5occc5c4)nc4cc(O)c(O)cc43)n2)C1` [Compound 35e, (R)-(3-(4-(2-(benzofuran-5-yl)-5,6-dihydroxy-1H-benzo[d]imidazole-1-yl)pyrimidin-2-ylamino)piperidine-1-yl)(cyclopropyl)methanone] the IC50 ([1]; Table 3) was < 30 nM.

`Oc1c2ccccc2c2c3c(cccc13)N=N2` [SP600125, reference compound] gave an IC50 ([1]; Table 1) of 30 to 100 nM, an IC50 ([1]; Table 2) of 30 to 100 nM and an IC50 ([1]; Table 3) of 30 to 100 nM.
